Laboratory results published in publication PMC7863721, “Plasticity of Carbohydrate Transport at the Blood-Brain Barrier” (Frontiers in Behavioral Neuroscience, 2021).

How the values were obtained:
[1] = biological target: T1, Pippin (CG4797); Pippin-3xHA (Drosophila melanogaster, UniProt Q8MLQ7); test: […]-sugar uptake into cRNA-injected Xenopus oocytes, net flux over native oocytes; type: cell-based; conditions: labelled compound; pH 7.2, 60 min; concentration series; no reliable Km or Vmax obtained
T1 sequence (Q8MLQ7 1-533): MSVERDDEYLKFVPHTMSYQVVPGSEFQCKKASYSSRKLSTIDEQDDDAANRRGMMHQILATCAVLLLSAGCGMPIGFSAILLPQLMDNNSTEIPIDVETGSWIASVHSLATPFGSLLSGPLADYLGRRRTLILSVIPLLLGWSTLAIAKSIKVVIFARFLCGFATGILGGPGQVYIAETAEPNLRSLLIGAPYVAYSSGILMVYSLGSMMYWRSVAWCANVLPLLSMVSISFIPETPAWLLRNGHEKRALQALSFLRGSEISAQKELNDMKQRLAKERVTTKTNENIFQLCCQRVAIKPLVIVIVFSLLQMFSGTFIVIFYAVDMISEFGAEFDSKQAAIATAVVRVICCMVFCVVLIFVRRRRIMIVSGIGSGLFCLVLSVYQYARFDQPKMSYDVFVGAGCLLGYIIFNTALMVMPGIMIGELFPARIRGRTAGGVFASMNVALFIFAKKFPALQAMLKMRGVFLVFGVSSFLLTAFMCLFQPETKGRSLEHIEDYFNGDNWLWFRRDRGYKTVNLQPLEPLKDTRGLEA

[2] = biological target: T2, MFS3 (Major Facilitator Superfamily Transporter 3); MFS3-3xHA (Drosophila melanogaster, UniProt Q9VPX2); test: as above; type: cell-based; conditions: labelled compound; pH 7.2, 60 min; concentration series; no reliable Km or Vmax obtained
T2 construct: b38 prints CG4762, apparently a misprint of CG4726
T2 sequence (Q9VPX2 1-512): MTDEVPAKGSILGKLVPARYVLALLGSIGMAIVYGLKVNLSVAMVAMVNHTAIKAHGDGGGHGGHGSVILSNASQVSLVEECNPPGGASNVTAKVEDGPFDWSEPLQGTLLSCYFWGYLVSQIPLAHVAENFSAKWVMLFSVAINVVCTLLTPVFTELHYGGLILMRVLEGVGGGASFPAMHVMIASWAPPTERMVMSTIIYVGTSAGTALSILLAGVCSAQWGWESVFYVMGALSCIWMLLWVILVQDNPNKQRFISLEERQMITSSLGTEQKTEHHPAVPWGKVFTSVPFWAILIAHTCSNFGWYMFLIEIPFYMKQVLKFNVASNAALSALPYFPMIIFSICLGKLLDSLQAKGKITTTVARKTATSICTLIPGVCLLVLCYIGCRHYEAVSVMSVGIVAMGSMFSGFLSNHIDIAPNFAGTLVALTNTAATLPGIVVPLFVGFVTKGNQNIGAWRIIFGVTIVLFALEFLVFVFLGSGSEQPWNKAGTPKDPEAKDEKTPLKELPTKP

OC[C@H]1O[C@H](O[C@H]2O[C@H](CO)[C@@H](O)[C@H](O)[C@H]2O)[C@H](O)[C@@H](O)[C@@H]1O [trehalose]
14C-sugar uptake into cRNA-injected Xenopus oocytes, net flux over native oocyte [1]: both Pippin and MFS3 facilitate uptake of glucose and trehalose efficiently
14C-sugar uptake into cRNA-injected Xenopus oocytes, net flux over native oocyte [2]: both Pippin and MFS3 facilitate uptake of glucose and trehalose efficiently

OC[C@H]1OC(O)[C@H](O)[C@@H](O)[C@@H]1O (stereo partly shown) [glucose]
14C-sugar uptake into cRNA-injected Xenopus oocytes, net flux over native oocyte [1]: both Pippin and MFS3 facilitate uptake of glucose and trehalose efficiently
14C-sugar uptake into cRNA-injected Xenopus oocytes, net flux over native oocyte [2]: both Pippin and MFS3 facilitate uptake of glucose and trehalose efficiently
